Among the data in patent publication US20250215012A1, “IKZF2 DEGRADERS AND USES THEREOF” (REGENTS OF THE UNIVERSITY OF MICHIGAN, priority 2022, published 2025) are DC50 and Dmax values, retold here.

This assay has as its target IKZF2 (Homo sapiens (Human), UniProt Q96SW2+Q9UKS7). Description: IKZF2 HiBiT Assay (Jurkat-IKZF2-HiBiT cell line). Format: cell-based. The settings on record: for DC50: read-out: HiBit assay degradation analysis DC50; for Dmax: read-out: HiBit assay degradation analysis Dmax. In outline: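 IKZF2 degradation was assessed as HiBiT luminescence in Jurkat-IKZF2-HiBiT cells, using lytic detection after 24 h of compound treatment at 37 °C, 5% CO2.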
(HiBiT is a short tag that completes a luciferase, so light tracks the accessible tagged protein.)

Setting [1] is: Jurkat-IKZF2-HiBiT cells, 24 hours.

Where two headings read alike, the source gives them in different places.

Sequence of IKZF2 (Q9UKS7 whole entry): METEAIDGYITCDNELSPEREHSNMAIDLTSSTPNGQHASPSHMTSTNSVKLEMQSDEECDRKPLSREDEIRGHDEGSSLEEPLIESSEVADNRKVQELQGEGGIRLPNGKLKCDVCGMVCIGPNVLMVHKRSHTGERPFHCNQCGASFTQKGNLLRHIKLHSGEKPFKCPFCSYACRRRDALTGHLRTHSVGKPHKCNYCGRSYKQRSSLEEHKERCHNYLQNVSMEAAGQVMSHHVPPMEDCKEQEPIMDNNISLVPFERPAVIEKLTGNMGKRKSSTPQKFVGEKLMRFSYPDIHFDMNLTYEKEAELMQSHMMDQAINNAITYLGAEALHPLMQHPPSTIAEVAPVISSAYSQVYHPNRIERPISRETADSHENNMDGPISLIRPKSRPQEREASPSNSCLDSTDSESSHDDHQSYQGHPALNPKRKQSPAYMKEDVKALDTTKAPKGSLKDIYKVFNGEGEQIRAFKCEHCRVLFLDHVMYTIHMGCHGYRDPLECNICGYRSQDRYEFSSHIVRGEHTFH
Sequence of IKZF2 (Q96SW2 whole entry): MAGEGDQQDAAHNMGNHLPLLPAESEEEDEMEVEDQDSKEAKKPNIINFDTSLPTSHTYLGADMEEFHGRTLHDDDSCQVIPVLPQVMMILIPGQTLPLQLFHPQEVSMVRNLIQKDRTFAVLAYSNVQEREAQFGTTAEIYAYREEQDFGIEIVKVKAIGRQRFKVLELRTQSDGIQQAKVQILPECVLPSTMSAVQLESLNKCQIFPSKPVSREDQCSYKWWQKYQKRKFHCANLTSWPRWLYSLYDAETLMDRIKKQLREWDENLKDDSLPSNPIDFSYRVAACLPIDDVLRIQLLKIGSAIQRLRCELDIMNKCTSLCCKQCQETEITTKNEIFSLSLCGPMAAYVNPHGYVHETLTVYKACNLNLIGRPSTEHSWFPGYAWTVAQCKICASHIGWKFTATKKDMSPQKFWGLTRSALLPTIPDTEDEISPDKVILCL
Sequence of IKZF2 (Q16531 whole entry partner): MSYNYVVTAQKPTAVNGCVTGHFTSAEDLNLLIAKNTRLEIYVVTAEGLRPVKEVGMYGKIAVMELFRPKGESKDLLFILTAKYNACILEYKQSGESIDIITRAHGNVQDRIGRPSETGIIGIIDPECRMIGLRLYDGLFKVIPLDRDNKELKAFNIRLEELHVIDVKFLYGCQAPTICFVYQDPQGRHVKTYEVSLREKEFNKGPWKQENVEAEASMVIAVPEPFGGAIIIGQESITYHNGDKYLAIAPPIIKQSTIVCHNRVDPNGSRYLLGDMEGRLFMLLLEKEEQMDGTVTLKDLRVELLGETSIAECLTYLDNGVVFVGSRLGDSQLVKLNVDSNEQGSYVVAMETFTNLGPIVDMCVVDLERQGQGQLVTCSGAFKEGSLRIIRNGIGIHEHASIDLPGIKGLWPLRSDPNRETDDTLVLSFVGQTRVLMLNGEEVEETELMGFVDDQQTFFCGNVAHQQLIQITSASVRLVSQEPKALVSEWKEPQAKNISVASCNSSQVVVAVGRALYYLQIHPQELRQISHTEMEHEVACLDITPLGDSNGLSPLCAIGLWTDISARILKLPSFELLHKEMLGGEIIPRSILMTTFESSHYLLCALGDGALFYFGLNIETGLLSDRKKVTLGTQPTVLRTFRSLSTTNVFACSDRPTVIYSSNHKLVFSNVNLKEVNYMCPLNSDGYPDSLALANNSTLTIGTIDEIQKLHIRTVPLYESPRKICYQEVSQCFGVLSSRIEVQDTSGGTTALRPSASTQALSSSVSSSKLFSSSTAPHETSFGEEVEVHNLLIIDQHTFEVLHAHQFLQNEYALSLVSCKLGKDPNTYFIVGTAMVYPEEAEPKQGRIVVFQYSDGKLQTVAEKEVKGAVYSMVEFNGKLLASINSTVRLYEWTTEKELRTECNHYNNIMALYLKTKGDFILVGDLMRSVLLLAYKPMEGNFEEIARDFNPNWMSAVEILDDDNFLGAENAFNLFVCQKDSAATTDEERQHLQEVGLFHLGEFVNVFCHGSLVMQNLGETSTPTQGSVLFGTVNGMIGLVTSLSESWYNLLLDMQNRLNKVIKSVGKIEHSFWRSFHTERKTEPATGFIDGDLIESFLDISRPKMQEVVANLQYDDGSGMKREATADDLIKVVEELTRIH

As for `O=C1CCC(N2Cc3c(ccc4c3OCC43CCN(Cc4cc(C(F)(F)F)cc5[nH]ccc45)CC3)C2=O)C(=O)N1` (stereo not shown) [Compound A114, 3-(6-oxo-1′-((6-(trifluoromethyl)-1H-indol-4-yl)methyl)-6,8-dihydro-2H,7H-spiro[furo[2,3-e]isoindole-3,4′-piperidin]-7-yl)piperidine-2,6-dione], under setting [1], the 50% degradation concentration (DC50) (usually the concentration at which degradation of the target reaches its halfway point) fell in the range of 50 to 200 nM and the greatest degradation seen (Dmax) (usually the greatest extent of degradation seen) was in the range of 60 to 80%.
The corresponding values for `O=C1CCC(N2Cc3c(ccc4c3OCC43CCN(Cc4ccn(-c5ccccc5F)n4)CC3)C2=O)C(=O)N1` (stereo not shown) [Compound A323, 3-(1′-((1-(2-fluorophenyl)-1H-pyrazol-3-yl)methyl)-6-oxo-6,8-dihydro-2H,7H-spiro[furo[2,3-e]isoindole-3,4′-piperidin]-7-yl)piperidine-2,6-dione] are > 500 nM and < 40%.
The corresponding values for `Cc1cc(CN2CCC3(CC2)COc2c3ccc3c2CN([C@H]2CCC(=O)NC2=O)C3=O)cc(-c2cnn(C3COC3)c2)c1` [Compound A279, (S)-3-(1′-(3-methyl-5-(1-(oxetan-3-yl)-1H-pyrazol-4-yl)benzyl)-6-oxo-6,8-dihydro-2H,7H-spiro[furo[2,3-e]isoindole-3,4′-piperidin]-7-yl)piperidine-2,6-dione] are < 50 nM and 60 to 80%.
Taken in the same sequence, the figures for `O=C1CCC(N2Cc3c(ccc4c3OCC43CCN(Cc4ccc5[nH]ncc5c4)CC3)C2=O)C(=O)N1` (stereo not shown) [Compound A198, 3-(1′-((1H-indazol-5-yl)methyl)-6-oxo-6,8-dihydro-2H,7H-spiro[furo[2,3-e]isoindole-3,4′-piperidin]-7-yl)piperidine-2,6-dione] were 200 to 500 nM and 60 to 80%.
Regarding `Cn1cc2ccc(CN3CCC4(CC3)COc3c4ccc4c3CN([C@H]3CCC(=O)NC3=O)C4=O)cc2n1` [Compound A169, (S)-3-(1′-((2-methyl-2H-indazol-6-yl)methyl)-6-oxo-6,8-dihydro-2H,7H-spiro[furo[2,3-e]isoindole-3,4′-piperidin]-7-yl)piperidine-2,6-dione], under setting [1], the DC50 is < 50 nM and the Dmax fell in the range of 60 to 80%.
The corresponding values for `COc1ccc(C(=O)Nc2cccc(CN3CCC4(CC3)COc3c4ccc4c3CN(C3CCC(=O)NC3=O)C4=O)c2)cc1` (stereo not shown) [Compound A177, N-(3-((7-(2,6-dioxopiperidin-3-yl)-6-oxo-7,8-dihydro-2H,6H-spiro[furo[2,3-e]isoindole-3,4′-piperidin]-1′-yl)methyl)phenyl)-4-methoxybenzamide] are < 50 nM and > 80%.
The corresponding values for `O=C1CCC(N2Cc3c(ccc4c3OCC43CCN(Cc4ccn5ccnc5c4)CC3)C2=O)C(=O)N1` (stereo not shown) [Compound A78] are 200 to 500 nM and 40 to 60%.
The corresponding values for `O=C1CC[C@H](N2Cc3c(ccc4c3OCC43CCN(Cc4cnn(-c5ccc(C(F)(F)F)cc5)c4)CC3)C2=O)C(=O)N1` [Compound A360, (S)-3-(6-oxo-1′-((1-(4-(trifluoromethyl)phenyl)-1H-pyrazol-4-yl)methyl)-6,8-dihydro-2H,7H-spiro[furo[2,3-e]isoindole-3,4′-piperidin]-7-yl)piperidine-2,6-dione] are < 50 nM and 60 to 80%.
In the case of `O=C1CCC(N2Cc3c(ccc4c3OCC43CCN(Cc4ccn5nccc5c4)CC3)C2=O)C(=O)N1` (stereo not shown) [Compound A80, 3-(6-oxo-1′-(pyrazolo[1,5-a]pyridin-5-ylmethyl)-6,8-dihydro-2H,7H-spiro[furo[2,3-e]isoindole-3,4′-piperidin]-7-yl)piperidine-2,6-dione], under setting [1], the DC50 was > 500 nM and the maximal degradation (Dmax) was < 40%.
Taken in the same sequence, the figures for `O=C1CCC(N2Cc3c(ccc4c3OCC43CCN(Cc4nccc5ccccc45)CC3)C2=O)C(=O)N1` (stereo not shown) [Compound A42, 3-(1′-(isoquinolin-1-ylmethyl)-6-oxo-6,8-dihydro-2H,7H-spiro[furo[2,3-e]isoindole-3,4′-piperidin]-7-yl)piperidine-2,6-dione] were > 500 nM and < 40%.
As to `O=C1CCC(N2Cc3c(ccc4c3OCC43CCN(CC4CCCC4)CC3)C2=O)C(=O)N1` (stereo not shown) [Compound A18, 3-(1′-(cyclopentylmethyl)-6-oxo-6,8-dihydro-2H,7H-spiro[furo[2,3-e]isoindole-3,4′-piperidin]-7-yl)piperidine-2,6-dione], under setting [1], the DC50 was > 500 nM and the Dmax is < 40%.
For the compound `Cc1ccc(C(=O)Nc2cccc(CN3CCC4(CC3)COc3c4ccc4c3CN(C3CCC(=O)NC3=O)C4=O)c2)cc1` (stereo not shown) [Compound A179, N-(3-((7-(2,6-dioxopiperidin-3-yl)-6-oxo-7,8-dihydro-2H,6H-spiro[furo[2,3-e]isoindole-3,4′-piperidin]-1′-yl)methyl)phenyl)-4-methylbenzamide], the Dmax was > 80%. Also, the 50% degradation concentration (DC50) under setting [1] is < 50 nM.
On to `[2H]C([2H])([2H])n1ncc2ccc(CN3CCC4(CC3)COc3c4ccc4c3CN([C@H]3CCC(=O)NC3=O)C4=O)cc21` [Compound A300, (S)-3-(1′-((1-(methyl-d3)-1H-indazol-6-yl)methyl)-6-oxo-6,8-dihydro-2H,7H-spiro[furo[2,3-e]isoindole-3,4′-piperidin]-7-yl)piperidine-2,6-dione], for which, under setting [1], the DC50 was < 50 nM and the Dmax was in the range of 60 to 80%.
The corresponding values for `O=C1CCC(N2Cc3c(ccc4c3OCC43CCN(Cc4cccc(Cl)c4)CC3)C2=O)C(=O)N1` (stereo not shown) [Compound A216, 3-(1′-(3-chlorobenzyl)-6-oxo-6,8-dihydro-2H,7H-spiro[furo[2,3-e]isoindole-3,4′-piperidin]-7-yl)piperidine-2,6-dione] are 50 to 200 nM and 60 to 80%.
The corresponding values for `O=C1CCC(N2Cc3c(ccc4c3OCC43CCN(Cc4cccc5sccc45)CC3)C2=O)C(=O)N1` (stereo not shown) [Compound A186, 3-(1′-(benzo[b]thiophen-4-ylmethyl)-6-oxo-6,8-dihydro-2H,7H-spiro[furo[2,3-e]isoindole-3,4′-piperidin]-7-yl)piperidine-2,6-dione] are < 50 nM and > 80%.
Taken in the same sequence, the figures for `O=C1CC[C@H](N2Cc3c(ccc4c3OCC43CCN(Cc4ccccc4)CC3)C2=O)C(=O)N1` [Compound A317, (S)-3-(1′-benzyl-6-oxo-6,8-dihydro-2H,7H-spiro[furo[2,3-e]isoindole-3,4′-piperidin]-7-yl)piperidine-2,6-dione] were 200 to 500 nM and 40 to 60%.
In the case of `COc1ccc(C(=O)Nc2cccc(CN3CCC4(CC3)OCc3c4ccc4c3CN(C3CCC(=O)NC3=O)C4=O)c2)cc1` (stereo not shown) [Compound A262], under setting [1], the DC50 is < 50 nM and the Dmax was 60 to 80%.
The corresponding values for `[2H]C([2H])([2H])n1ccc(-c2cccc(CN3CCC4(CC3)COc3c4ccc4c3CN([C@H]3CCC(=O)NC3=O)C4=O)c2)n1` [Compound A302, (S)-3-(1′-(3-(1-(methyl-d3)-1H-pyrazol-3-yl)benzyl)-6-oxo-6,8-dihydro-2H,7H-spiro[furo[2,3-e]isoindole-3,4′-piperidin]-7-yl)piperidine-2,6-dione] are < 50 nM and 60 to 80%.
As to `O=C1CCC(N2Cc3c(ccc4c3OCC43CCN(Cc4ccc5ccncc5c4)CC3)C2=O)C(=O)N1` (stereo not shown) [Compound A45], under setting [1], the 50% degradation concentration (DC50) lay in the range of 200 to 500 nM and the Dmax fell in the range of 40 to 60%.
The corresponding values for `O=C1CC[C@H](N2Cc3c(ccc4c3OCC43CCN(Cc4cnn(CC5(c6ccccc6)CC5)c4)CC3)C2=O)C(=O)N1` [Compound A348, (S)-3-(6-oxo-1′-((1-((1-phenylcyclopropyl)methyl)-1H-pyrazol-4-yl)methyl)-6,8-dihydro-2H,7H-spiro[furo[2,3-e]isoindole-3,4′-piperidin]-7-yl)piperidine-2,6-dione] are < 50 nM and 60 to 80%.
Taken in the same sequence, the figures for `O=C1CCC(N2Cc3c(ccc4c3OCCC43CCN(Cc4ccccc4)CC3)C2=O)C(=O)N1` (stereo not shown) [Compound A13, 3-(1-benzyl-7′-oxo-2′,3′,7′,9′-tetrahydro-8′H-spiro[piperidine-4,4′-pyrano[2,3-e]isoindol]-8′-yl)piperidine-2,6-dione] were > 500 nM and < 40%.
Taken in the same sequence, the figures for `O=C1CCC(N2Cc3c(ccc4c3OCC43CCN(Cc4ccn(-c5cccc(F)c5)n4)CC3)C2=O)C(=O)N1` (stereo not shown) [Compound A316, 3-(1′-((1-(3-fluorophenyl)-1H-pyrazol-3-yl)methyl)-6-oxo-6,8-dihydro-2H,7H-spiro[furo[2,3-e]isoindole-3,4′-piperidin]-7-yl)piperidine-2,6-dione] were > 500 nM and 40 to 60%.
In the case of `O=C1CCC(N2Cc3c(ccc4c3OCC43CCN(Cc4ccccc4-n4cccn4)CC3)C2=O)C(=O)N1` (stereo not shown) [Compound A156, 3-(1′-(2-(1H-pyrazol-1-yl)benzyl)-6-oxo-6,8-dihydro-2H,7H-spiro[furo[2,3-e]isoindole-3,4′-piperidin]-7-yl)piperidine-2,6-dione], under setting [1], the 50% degradation concentration (DC50) is > 500 nM and the Dmax was < 40%.
Consider `O=C1CCC(N2Cc3c(ccc4c3OCC43CCN(Cc4ccccc4Oc4ccccc4)CC3)C2=O)C(=O)N1` (stereo not shown) [Compound A100, 3-(6-oxo-1′-(2-phenoxybenzyl)-6,8-dihydro-2H,7H-spiro[furo[2,3-e]isoindole-3,4′-piperidin]-7-yl)piperidine-2,6-dione], for which, under setting [1], the DC50 was > 500 nM and the Dmax is < 40%.
Consider `O=C1CCC(N2Cc3c(ccc4c3OCC43CCN(C[C@H]4C[C@H](Oc5ccc(F)cc5)C4)CC3)C2=O)C(=O)N1` (stereo partly shown) [Compound A356, 3-(1′-(((1r,3r)-3-(4-fluorophenoxy)cyclobutyl)methyl)-6-oxo-6,8-dihydro-2H,7H-spiro[furo[2,3-e]isoindole-3,4′-piperidin]-7-yl)piperidine-2,6-dione], for which the DC50 under setting [1] was > 500 nM.
